Assay results published in ChEMBL document CHEMBL4219049, “Peptide therapeutics for the treatment of gastrointestinal disorders” (Bioorg Med Chem, 2018).
Bridge positions count the residues as written; N and C are the ends. Peptide text beside a SMILES is read from it.

Legend:
Homo sapiens [1] = species on record: Homo sapiens; assay: Reduction in worst abdominal pain in patient with irritable bowel syndrome with constipation after 26 weeks (reference value: 25%); type: functional; parameters: scale not given: the % may be the effect or the level left
Homo sapiens [2] = species on record: Homo sapiens; assay: Toxicity in patient with irritable bowel syndrome with constipation assessed as induction of diarrhea after 26 weeks (reference value: 2.5%); type: organism-based; conditions: in vivo, 4368 h
[3] = Elimination half-life in human plasma at 0.8 pmol/kg.min, iv; type: ADME, cell-free; conditions: read-out: beta t1/2
Homo sapiens [4] = species on record: Homo sapiens; assay: Increase in complete spontaneous bowel movements in patient with chronic idiopathic constipation at 3 mg for 12 weeks (reference value: 10.2%); type: functional
Homo sapiens [5] = species on record: Homo sapiens; assay: Toxicity in patient with chronic idiopathic constipation assessed as induction of diarrhea at 3 mg for 12 weeks (reference value: 1.3%); type: organism-based; conditions: in vivo, 2016 h
Homo sapiens [6] = species on record: Homo sapiens; assay: Increase in complete spontaneous bowel movements in patient with chronic idiopathic constipation at 6 mg for 12 weeks (reference value: 10.2%); type: functional
Homo sapiens [7] = species on record: Homo sapiens; assay: Toxicity in patient with chronic idiopathic constipation assessed as induction of diarrhea at 6 mg for 12 weeks (reference value: 1.3%); type: organism-based; conditions: in vivo, 2016 h

In the case of `C[C@@H]1NC(=O)[C@@H]2CCCN2C(=O)[C@H](CC(N)=O)NC(=O)[C@@H]2CSSC[C@H](N)C(=O)N[C@H]3CSSC[C@H](NC1=O)C(=O)N[C@@H]([C@@H](C)O)C(=O)NCC(=O)N[C@H](C(=O)N[C@@H](Cc1ccc(O)cc1)C(=O)O)CSSC[C@H](NC(=O)[C@H](Cc1ccc(O)cc1)NC(=O)[C@H](CCC(=O)O)NC3=O)C(=O)N2` [LINACLOTIDE] (H-CCEYCCNPACTGCY-OH; disulfide 1-6, 2-10, 5-13), the Activity (Homo sapiens [1]) is reported as 47% and the Activity (Homo sapiens [2]) is reported as 19.7%.

`CC[C@H](C)[C@H](NC(=O)[C@H](Cc1ccccc1)NC(=O)[C@H](CC(=O)O)NC(=O)[C@H](CCCN=C(N)N)NC(=O)[C@H](C)NC(=O)[C@H](C)NC(=O)[C@H](CC(C)C)NC(=O)[C@H](CC(N)=O)NC(=O)[C@H](CC(=O)O)NC(=O)[C@H](CC(C)C)NC(=O)[C@@H](NC(=O)[C@@H](NC(=O)[C@H](CC(N)=O)NC(=O)[C@H](CCSC)NC(=O)[C@H](CCC(=O)O)NC(=O)[C@H](CC(=O)O)NC(=O)[C@H](CO)NC(=O)[C@H](Cc1ccccc1)NC(=O)[C@H](CO)NC(=O)CNC(=O)[C@H](CC(=O)O)NC(=O)[C@H](C)NC(=O)[C@@H](N)Cc1cnc[nH]1)[C@@H](C)O)[C@@H](C)CC)C(=O)N[C@@H](CC(N)=O)C(=O)N[C@@H](Cc1c[nH]c2ccccc12)C(=O)N[C@@H](CC(C)C)C(=O)N[C@H](C(=O)N[C@@H](CCC(N)=O)C(=O)N[C@H](C(=O)N[C@@H](CCCCN)C(=O)N[C@H](C(=O)N[C@H](C(=O)N[C@@H](CC(=O)O)C(=O)O)[C@@H](C)O)[C@@H](C)CC)[C@@H](C)O)[C@@H](C)CC` gave a half-life [3] of 7.2 min.

`CC(C)C[C@H](NC(=O)[C@@H]1CSSC[C@@H]2NC(=O)[C@H](CC(C)C)NC(=O)[C@H](CCC(=O)O)NC(=O)[C@@H](NC(=O)[C@H](CCC(=O)O)NC(=O)[C@H](CC(=O)O)NC(=O)[C@@H](N)CC(N)=O)CSSC[C@H](NC(=O)[C@H](C)NC(=O)[C@H](C(C)C)NC(=O)[C@H](CC(N)=O)NC(=O)[C@H](C(C)C)NC2=O)C(=O)N[C@@H]([C@@H](C)O)C(=O)NCC(=O)N1)C(=O)O` [PLECANATIDE] gave an Activity (Homo sapiens [4]) of 21%, an Activity (Homo sapiens [5]) of 5.9% and an Activity (Homo sapiens [6]) of 19.5%. The Activity (Homo sapiens [7]) was 5.7%.
